Assay results published in paper PMC9306949 (Clinical Pharmacology in Drug Development, 2022).
Entries after “also recorded” stand apart in the source; their conditions may differ. Where two headings read alike, the source gives them in different places. Marks after values point to notes of the source that are not given here.

Experiments:
[1] = Urine excretion of navtemadlin and M1; format: in vivo, human
[2] = cited from earlier work
[3] = format: in vivo, human; settings: for M/P (AUC0‐t), metabolite-to-parent ratio / AUC0‐24 / AUC0‐inf / AUC0‐t / C24 / Cmax: mean (%CV); for t1/2 / AUC0‐24 / AUC0‐inf / AUC0‐t / C24 / Cmax / tmax: plasma; for t1/2: arithmetic mean (%CV); for tmax: median (min-max)
[4] = cited from earlier work; remark: listed apart in the source
[5] = period 1 (old tablet fasted), 0-48 h urine
[6] = patients with solid tumors or multiple myeloma
[7] = Treatment A (reference): new tablet fasted, drug-load analysis
[8] = Treatment A (reference): new tablet fasted, food-effect analysis
[9] = Treatment B (test 1): new tablet fed, food-effect analysis
[10] = Treatment B: 60-mg new tablet, fed (high-fat meal)
[11] = Treatment C (test 2): old tablet fasted, drug-load analysis
[12] = Treatment C: 60-mg old tablet, fasted
[13] = Treatment A: 60-mg new tablet, fasted
[14] = test/reference: B (new tablet fed) vs A (new tablet fasted)
[15] = test/reference: C (old tablet fasted) vs A (new tablet fasted)

Compound: CC(C)[C@@H](CS(=O)(=O)C(C)C)N1C(=O)[C@@](C)(CC(=O)O[C@@H]2O[C@H](C(=O)O)[C@@H](O)[C@H](O)[C@H]2O)C[C@H](c2cccc(Cl)c2)[C@H]1c1ccc(Cl)cc1 [M1, navtemadlin acyl glucuronide]
- mean amount excreted in urine [1, 5]: 17.3 µg
- mean fraction of dose excreted in urine [1, 5]: 0.02%
- urine excretion ([1]; single 60-mg dose, healthy subjects): negligible
- mean accumulation ([2]; 7‐day once‐daily dosing period, patients): < 2 fold
- mean (SD) terminal half‐life (t1/2) [2, 6]: 14.0 (6.07) hours
- mean metabolite‐to‐parent 24‐hour AUC ratio [2, 6]: 0.461
- mean tmax [2, 6]: 2 to 4 h
- tmax, median ([3]; Treatment A (reference): new tablet fasted, average of 2, drug-load analysis): 2.5 ^d h
- tmax, median ([3]; Treatment A (reference): new tablet fasted, average of 2, food-effect analysis): 2.5 ^d h
- AUC0‐24, GLSM [3, 7]: 528, N = 30 ng • h/mL
- AUC0‐inf, GLSM [3, 7]: 701, N = 28 ng • h/mL
- AUC0‐t, GLSM [3, 7]: 646, N = 30 ng • h/mL
- Cmax, GLSM [3, 7]: 98, N = 30 ng/mL
- AUC0‐24, GLSM [3, 8]: 528, N = 30 ng • h/mL
- AUC0‐inf, GLSM [3, 8]: 710, N = 28 ng • h/mL
- AUC0‐t, GLSM [3, 8]: 646, N = 30 ng • h/mL
- Cmax, GLSM [3, 8]: 98, N = 30 ng/mL
- exposure in UGT1A1*28 heterozygous poor metabolizers (6/7 TA repeats) vs WT (6/6 TA repeats) ([3]; Treatment A, n = 16 vs n = 12): generally comparable
- AUC0‐24, GLSM [3, 9]: 465, N = 30 ng • h/mL
- AUC0‐inf, GLSM [3, 9]: 610, N = 22 ng • h/mL
- AUC0‐t, GLSM [3, 9]: 555, N = 30 ng • h/mL
- Cmax, GLSM [3, 9]: 117, N = 30 ng/mL
- tmax, median [3, 9]: 3.0 ^d h
- M/P (AUC0‐t), metabolite-to-parent ratio [3, 10]: 0.2 (38.3); 30
- AUC0‐24, GLSM [3, 11]: 506, N = 30 ng • h/mL
- AUC0‐inf, GLSM [3, 11]: 643, N = 26 ng • h/mL
- AUC0‐t, GLSM [3, 11]: 585, N = 30 ng • h/mL
- Cmax, GLSM [3, 11]: 84, N = 30 ng/mL
- tmax, median [3, 11]: 2.0 ^d h
- M/P (AUC0‐t), metabolite-to-parent ratio [3, 12]: 0.2 (34.3); 30
- acyl glucuronide to parent drug AUC0‐t ratio ([3]; after correction for molecular weight, across study groups): ≈ 0.2
- time of second peak after dosing (enterohepatic recirculation) ([3]; all 3 treatments): around 10 hours
- PK in H. pylori–positive vs H. pylori–negative subjects ([3]; n = 12 positive vs n = 18 negative): not markedly affected
- decrease in extent of exposure (AUC0‐24, AUC0‐t, AUC0‐inf) with a high‐fat meal ([3]; new tablet fed vs fasted): 12% to 18%
- increase in Cmax with a high‐fat meal ([3]; new tablet fed vs fasted): ≈ 18%; also recorded: ≈ 20%
- difference in median tmax between fed and fasted conditions, significance ([3]; new tablet, Wilcoxon signed-rank, alpha level of 0.1): not significant
- t1/2 [3, 13]: 16.2 (57.8); 46 h
- AUC0‐24 [3, 13]: 607 (60.9); 60 ng • h/mL
- AUC0‐inf [3, 13]: 849 (74.1); 46 ng • h/mL
- AUC0‐t [3, 13]: 782 (72.2); 60 ng • h/mL
- C24 [3, 13]: 7.82 (97.4); 60 ng/mL
- Cmax [3, 13]: 118 (70.0); 60 ng/mL
- tmax [3, 13]: 2.02 (1.00 – 6.00); 60 h
- AUC0‐24 [3, 10]: 532 (56.0); 30 ng • h/mL
- AUC0‐inf [3, 10]: 824 (61.1); 22 ng • h/mL
- AUC0‐t [3, 10]: 666 (65.8); 30 ng • h/mL
- C24 [3, 10]: 5.96 (87.8); 30 ng/mL
- Cmax [3, 10]: 133 (52.6); 30 ng/mL
- tmax [3, 10]: 3.00 (0.99 ‐ 4.02); 30 h
- t1/2 [3, 12]: 13.7 (68.5); 26 h
- AUC0‐24 [3, 12]: 609 (68.6); 30 ng • h/mL
- AUC0‐inf [3, 12]: 794 (71.6); 26 ng • h/mL
- AUC0‐t [3, 12]: 740 (77.5); 30 ng • h/mL
- C24 [3, 12]: 7.04 (109.6); 30 ng/mL
- Cmax [3, 12]: 101 (65.3); 30 ng/mL
- tmax [3, 12]: 2.01 (1.00 – 6.00); 30 h
- tmax, difference of medians (90%CI) ([3]; test-reference: B (new tablet fed) minus A (new tablet fasted)): 0.4 (‐0.002‐0.8) ^e , ^g h
- tmax, difference of medians (90%CI) ([3]; test-reference: C (old tablet fasted) minus A (new tablet fasted)): 0.1 (–0.3 to 0.6) ^e , ^g h
- AUC0‐24, % ratio of least squares means (90%CI) [3, 14]: 88.2 (82.2‐94.6) %
- AUC0‐inf, % ratio of least squares means (90%CI) [3, 14]: 86.0 (77.5‐95.4) %
- AUC0‐t, % ratio of least squares means (90%CI) [3, 14]: 85.9 (79.9‐92.3) %
- Cmax, % ratio of least squares means (90%CI) [3, 14]: 118.7%
- AUC0‐24, % ratio of least squares means (90%CI) [3, 15]: 95.8 (89.4‐102.7) %
- AUC0‐inf, % ratio of least squares means (90%CI) [3, 15]: 91.8 (85.3 to 98.6) %
- AUC0‐t, % ratio of least squares means (90%CI) [3, 15]: 90.6 (84.2 to 97.6) %
- Cmax, % ratio of least squares means (90%CI) [3, 15]: 85.7 (77.9‐94.2) %
- share of excreted biliary radioactivity ([4]; rat bile): accounts for most of the excreted biliary radioactivity
- presence in feces ([4]; rat feces, hydrolysis in the intestine): not present in rat feces
